Measured values published in PMC11939078, “TAK-994 mechanistic investigation into drug-induced liver injury” (Toxicological Sciences, 2025).

How the values were obtained:
[1] = target: human BSEP (Homo sapiens, UniProt O95342); assay: BSEP inhibition, [3H]TCA uptake into membrane vesicles; type: biochemical; conditions: [3H]TCA transport
Description: Covalent binding of TAK-994 was assessed by incubating [^14C]TAK-994 with human hepatocytes. The CVB level was determined by relating the total amount of radioactivity (pmol equivalent) to the protein concentration in each sample. Assessment of TAK-994 inhibition potential for the bile salt efflux pump (BSEP) was assessed by incubating [^3H(G)]taurocholic acid with TAK-994 (0 to 100 μM/l) or cyclosporin A after addition of 10 μl of membrane vesicles expressing BSEP or control membrane vesicles. Scintillation counts were assessed in two 5-min cycles.
Membrane vesicles prepared from baculovirus-infected insect cells, expressing human BSEP or controls (Lot Nos. ISAOG29 and IKING23, respectively), were purchased from GenoMembrane Co., Ltd.
The [^3H]TCA reaction mixture (n=42) containing TAK-994 (including 0–100 μM/L TAK-994) or cyclosporin A was pre-incubated at 37°C for 5 minutes. The transport reaction was initiated by addition of 10 μL of membrane vesicles expressing BSEP or control membrane vesicles (0.05 mg protein) to the [^3H]TCA reaction mixture (final [^3H]TCA concentration of 2 μM/L). […] The glass fiber filter was measured for radioactivity using an LSC. […]
The count rates in cpm were corrected to dpm, with the background and counting efficiency assessed using the external standard method described by the manufacturer. […]

[2] = Plasma exposure in NT1 patients; type: in vivo, human
[3] = system: nonTg-rasH2 mice; assay: NonTg rasH2 mice 4-week oral gavage toxicity study; type: in vivo, mouse; conditions: for Histopathological Liver Findings / ALT / AST / GLDH: NonTg rasH2 mice 4-week; for ALT / AST / GLDH: mean (SD)
Description: Although phase I human clinical trials were ongoing, additional GLP-compliant repeat-dose oral toxicity studies were conducted in nonTg-rasH2 mice, to enable carcinogenicity studies. […] The liver toxicity presented at high doses ≥300 mg/kg/day as single-cell necrosis of periportal hepatocytes associated with increased aspartate aminotransferase (AST), alkaline phosphatase, ALT, and glutamate dehydrogenase values that increased in a dose-proportional manner alongside cytochrome P450 induction (Table S2).
^cAll dose levels had 10 animals per sex.
*p<0.05 using Shirley-Williams test.

[4] = system: human liver microtissues; assay: Glutathione depletion (BSO) assay in liver microtissues; type: cell-based; conditions: for IC50: cellular ATP, 14 days
Description: Toxicology of TAK-994 was assessed using lnSphero’s 3D lnSight Human Liver models, based on N-acetyl-L-cysteine causality assay, glutathione depletion assay, and lipopolysaccharide (LPS)-sensitization assay. Hepatotoxicity was assessed in 7- and 14-day mono and co-culture models, in which cells were exposed to TAK-994 (0.1, 0.3, 1, 3.16, 10, 31.6, or 100 μM) […].
Co-culture model cells were pretreated with BSO (150 μM in DMSO) and then exposed to TAK-994 (0.1, 0.3, 1, 3.16, 10, 31.6, or 100 μM in 0.5% DMSO) in the presence and absence of BSO for 14 days (during the treatment period, TAK-994 with or without BSO was administered on Days 0, 5, and 9). Six replicates were tested for each condition. The vehicle control was 0.5% DMSO and the positive control was acetaminophen (0.6, 1.25, 2.5, or 5 mM in Medium TOX). Cellular ATP content was measured in the cell lysate on Day 14 of treatment. LDH release was measured on Days 5, 9, and 14 in the cell supernatant. For cells administered BSO alone, cellular ATP content was also measured on Day 3 and LDH release was also determined between Days 0 to 3. LDH measurements were normalized to lysed controls. Cellular GSH content was measured by GSH-Glo™ Glutathione Assay (Promega) on Days 0, 3, and 14 in the positive control group.
(§1) Intracellular ATP content in model lysates was measured with the CellTiter-Glo® 2.0 Cell Viability Assay (Catalogue No. G9243, Promega). The Bioluminescent LDH Release Toxicity Assay Kit (Catalogue No. J2380, Promega) was used to assess extracellular LDH release and normalized to lysed controls. ATP, LDH, GSH, and triglycerides were measured according to internal technical operating procedures.

[5] = system: human liver microtissues; assay: LPS-sensitization assay in liver microtissues; type: cell-based; conditions: for IC50: cellular ATP on Day 14
Description: Six replicates were tested for each condition. […] Cellular ATP content was measured in the cell lysate on Day 14 of treatment. LDH release was measured on Days 5, 9, and 14 in the cell supernatant and normalized to lysed controls.
as §1

[6] = system: participants; assay: Phase I first-in-human study TAK-994-1001, safety; type: in vivo
Source text: TAK-994 was considered to be well tolerated in phase I studies. […] Of 121 participants, 1 subject discontinued due to elevated alanine aminotransferase (ALT) with no other liver enzyme elevations. This event was considered mild in intensity and the participant recovered within 2 wk. No other clinically significant liver enzyme elevations were reported in phase I studies.

[7] = system: patients with narcolepsy; parameters: method as in Dauvilliers et al. 2023; conditions: 30, 90 or 180 mg twice daily, 8 wk; ref Dauvilliers et al. 2023; cited from earlier work

human BSEP, sequence (O95342 whole entry): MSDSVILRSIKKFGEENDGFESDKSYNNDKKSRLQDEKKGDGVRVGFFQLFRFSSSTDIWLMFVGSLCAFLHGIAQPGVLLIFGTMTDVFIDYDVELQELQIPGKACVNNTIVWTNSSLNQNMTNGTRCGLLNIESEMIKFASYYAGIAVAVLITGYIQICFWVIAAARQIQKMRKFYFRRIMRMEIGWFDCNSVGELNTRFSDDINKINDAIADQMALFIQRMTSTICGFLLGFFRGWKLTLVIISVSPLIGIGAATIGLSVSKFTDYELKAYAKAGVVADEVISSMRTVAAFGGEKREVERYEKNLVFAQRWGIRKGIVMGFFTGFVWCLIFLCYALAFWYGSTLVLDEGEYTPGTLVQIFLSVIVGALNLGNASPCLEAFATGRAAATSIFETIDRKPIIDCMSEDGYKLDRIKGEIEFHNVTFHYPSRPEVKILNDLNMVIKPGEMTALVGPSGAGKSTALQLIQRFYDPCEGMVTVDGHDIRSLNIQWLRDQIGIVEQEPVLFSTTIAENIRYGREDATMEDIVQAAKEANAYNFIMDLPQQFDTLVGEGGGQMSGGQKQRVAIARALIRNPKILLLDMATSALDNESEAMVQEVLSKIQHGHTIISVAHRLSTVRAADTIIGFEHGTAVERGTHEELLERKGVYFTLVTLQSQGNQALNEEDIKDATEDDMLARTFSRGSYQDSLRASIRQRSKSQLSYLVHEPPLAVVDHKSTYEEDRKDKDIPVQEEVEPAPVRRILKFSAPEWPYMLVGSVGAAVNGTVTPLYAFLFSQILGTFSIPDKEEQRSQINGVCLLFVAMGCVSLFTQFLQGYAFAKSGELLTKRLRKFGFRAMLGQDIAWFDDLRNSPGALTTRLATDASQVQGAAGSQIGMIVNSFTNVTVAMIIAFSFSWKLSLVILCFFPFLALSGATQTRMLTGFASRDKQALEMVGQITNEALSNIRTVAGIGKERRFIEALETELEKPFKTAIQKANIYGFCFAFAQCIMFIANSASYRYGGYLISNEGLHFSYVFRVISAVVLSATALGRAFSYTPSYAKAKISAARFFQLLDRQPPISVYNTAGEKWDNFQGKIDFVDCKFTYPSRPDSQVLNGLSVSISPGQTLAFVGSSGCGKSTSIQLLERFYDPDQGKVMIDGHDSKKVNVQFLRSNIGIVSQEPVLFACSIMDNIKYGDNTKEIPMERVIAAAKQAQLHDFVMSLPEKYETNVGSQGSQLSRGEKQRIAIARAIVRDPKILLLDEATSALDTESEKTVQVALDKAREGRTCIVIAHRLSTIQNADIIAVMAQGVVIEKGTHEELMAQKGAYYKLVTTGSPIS

With `CC(C)(O)C(=O)N1CC[C@H](NS(C)(=O)=O)[C@@H]1Cc1cccc(-c2cc(F)cc(F)c2)c1F.CC(C)(O)C(=O)N1CC[C@H](NS(C)(=O)=O)[C@@H]1Cc1cccc(-c2cc(F)cc(F)c2)c1F.O.O.O` [TAK-994] the IC50 [1] was 34.1 µM, the “AUC24, ss in NT1 patients” value ([2]; 30 mg BID) was 2,920 h*nM and the Cmax ([2]; 30 mg BID) was 408 nM. For the same compound, the “AUC24, ss in NT1 patients” value ([2]; 90 mg BID) was 8,870 h*nM, the Cmax ([2]; 90 mg BID) was 948 nM and the “AUC24, ss in NT1 patients” value ([2]; 180 mg BID) was 14,800 h*nM. The Cmax ([2]; 180 mg BID) was 1640 nM, the “Histopathological Liver Findings” value ([3]; female, 300 mg/kg) was “Single cell necrosis of hepatocytes” and the ALT ([3]; female, 300 mg/kg) was 175 (79)* IU/L. For the same compound, the AST ([3]; female, 300 mg/kg) was 163 (65)* IU/L, the GLDH ([3]; female, 300 mg/kg) was 172 (66)* IU/L and the “Histopathological Liver Findings” value ([3]; female, 2000 mg/kg) was “Single cell necrosis of hepatocytes”. For the same compound, the ALT ([3]; female, 2000 mg/kg) was 581 (278)* IU/L, the AST ([3]; female, 2000 mg/kg) was 317 (203)* IU/L and the GLDH ([3]; female, 2000 mg/kg) was 562 (324)* IU/L. For the same compound, the “Histopathological Liver Findings” value ([3]; female, 4000 mg/kg) was “Single cell necrosis of hepatocytes”, the ALT ([3]; female, 4000 mg/kg) was 1242 (604)* IU/L and the AST ([3]; female, 4000 mg/kg) was 473 (216)* IU/L. The GLDH ([3]; female, 4000 mg/kg) was 1384 (585)* IU/L, the “Histopathological Liver Findings” value ([3]; male, 300 mg/kg) was “Single cell necrosis of hepatocytes” and the ALT ([3]; male, 300 mg/kg) was 99 (57)* IU/L. The AST ([3]; male, 300 mg/kg) was 79 (34)* IU/L, the GLDH ([3]; male, 300 mg/kg) was 104 (68)* IU/L and the “Histopathological Liver Findings” value ([3]; male, 2000 mg/kg) was “Single cell necrosis of hepatocytes”. The ALT ([3]; male, 2000 mg/kg) was 337 (409)* IU/L, the AST ([3]; male, 2000 mg/kg) was 211 (299)* IU/L and the GLDH ([3]; male, 2000 mg/kg) was 331 (356)* IU/L. For the same compound, the “Histopathological Liver Findings” value ([3]; male, 4000 mg/kg) was “Single cell necrosis of hepatocytes”, the ALT ([3]; male, 4000 mg/kg) was 1164 (330)* IU/L and the AST ([3]; male, 4000 mg/kg) was 443 (150)* IU/L. The GLDH ([3]; male, 4000 mg/kg) was 1303 (408)* IU/L, the “doses at which liver toxicity (single-cell necrosis of periportal hepatocytes, increased AST, ALP, ALT, GLDH) presented” value ([3]; nonTg-rasH2 mice, repeat-dose oral) was ≥ 300 mg/kg/day and the “sensitization of liver microtissues by buthionine sulfoximine depletion” value [4] was “no such sensitivity was observed”. The IC50 ([4]; glutathione depleted, read-out: IC50, liver microtissues + BSO (Fig. 4A)) was > 100 µM, the IC50 ([4]; read-out: IC50, liver microtissues without BSO (Fig. 4A)) was > 100 µM and the “sensitization of liver microtissues by LPS (innate immune activation)” value [5] was “no direct innate immune-mediated toxicity was observed”. For the same compound, the IC50 ([5]; read-out: IC50, liver microtissues + LPS (Fig. 5A)) was > 100 µM, the IC50 ([5]; read-out: IC50, liver microtissues without LPS (Fig. 5A)) was > 100 µM and the “deaths or SAEs” value ([6]; TAK-994-1001) was “no deaths or SAEs were reported”. For the same compound, the “subjects discontinued due to elevated ALT” value ([6]; of 121 participants) was 1 and the “mean wakefulness time in people with narcolepsy” value [7] was “effectively increased mean wakefulness time”.
